A word on the bioavailability: it is dose-corrected exposure relative to a reference, in per cent. Read a high bioavailability as much systemic uptake. The term logP denotes a log measure of how a compound divides between an organic and an aqueous phase. One may read the Papp as a coefficient for how fast a substance crosses the barrier. The term pKa denotes the pH at which an ionisable group is half protonated. Higher therefore signals a weaker acid or stronger base.

The record followed here is ChEMBL document CHEMBL1158536, “How well can the Caco-2/Madin-Darby canine kidney models predict effective human jejunal permeability?” (J Med Chem, 2010).

The nature of series [1]: Absolute bioavailability in human. To be noted: in vivo. It is filed as ADME, organism-based.
A short description of series [2]: Octanol-water partition coefficient, log P of the compound. Format: physicochemical. The settings on record: read-out: logP.
For series [3] the following is noted: caco-2.
Another series is described as follows: clinical. The settings on record: human.
Series [4] can be described thus: Dissociation constant, pKa of the compound. Format: physicochemical.

Regarding `CCCc1cc(=O)[nH]c(=S)[nH]1` [PROPYLTHIOURACIL], in series [1], the bioavailability was found to be 85%.

In series [1], `N=C(N)NC(=O)c1nc(Cl)c(N)nc1N` [AMILORIDE] yielded a bioavailability of 50%. Moreover, in series [2], the lipophilicity (logP) is -0.26. The Daq in series [3] is recorded as 8.4 ×10⁻⁶ cm2/s. In the series “clinical”, this molecule registered a Papp of 163 ×10⁻⁶ cm/s.

The molecule `CC(C)NCC(O)COc1ccc(CC(N)=O)cc1` (stereo unspecified) [ATENOLOL] registered a Daq in series [3] of 7.9 ×10⁻⁶ cm2/s.

In series [1], `COc1ccc(CCN(C)CCCC(C#N)(c2ccc(OC)c(OC)c2)C(C)C)cc1OC` (stereo unspecified) returned a bioavailability of 84%.

In series [3], `NS(=O)(=O)c1cc(C(=O)O)c(NCc2ccco2)cc1Cl` [FUROSEMIDE] yielded a Daq of 7.1 ×10⁻⁶ cm2/s.

In series [1], `NS(=O)(=O)c1cc2c(cc1Cl)NCNS2(=O)=O` [HYDROCHLOROTHIAZIDE] came in with a bioavailability of 55%. Also, in series [2], the logP was -0.03. The molecule further registered a Daq in series [3] of 7.5 ×10⁻⁶ cm2/s. For the same molecule, in the series “clinical”, the Papp is 4 ×10⁻⁶ cm/s.

In series [1], `CNCCCN1c2ccccc2CCc2ccccc21` [DESIPRAMINE] had a bioavailability of 70%. This molecule also gave a Daq in series [3] of 7.9 ×10⁻⁶ cm2/s. This molecule also returned an apparent permeability (Papp) in the series “clinical” of 440 ×10⁻⁶ cm/s.

`O=C1OC2(c3ccc(O)cc3Oc3cc(O)ccc32)c2ccccc21` [FLUORESCEIN] displayed a bioavailability in series [1] of 99%.

For `N[C@@H](Cc1ccccc1)C(=O)O` [PHENYLALANINE], in series [1], the bioavailability was determined as 100%. Besides, in series [4], the pKa came to 2.2. In addition, the Daq in series [3] was 9.8 ×10⁻⁶ cm2/s. The same molecule returned a Papp in the series “clinical” of 336 ×10⁻⁶ cm/s.

For `N=C(N)NCCCNC(=O)[C@@H]1CCCCN1C(=O)[C@@H](CC1CCCCC1)NCC(=O)O` [INOGATRAN], the bioavailability in series [1] stood at 5%. Moreover, in series [4], the pKa was found to be 1.6. For the same molecule, the lipophilicity (logP) in series [2] was -0.6.

The molecule `O=C(N[C@H](CO)[C@H](O)c1ccc([N+](=O)[O-])cc1)C(Cl)Cl` [CHLORAMPHENICOL] returned a bioavailability in series [1] of 82%.

On to `COc1cc(Cc2cnc(N)nc2N)cc(OC)c1OC` [TRIMETHOPRIM], for which, in series [1], the bioavailability was 98%.

Consider `COCCc1ccc(OCC(O)CNC(C)C)cc1` (stereo unspecified) [METOPROLOL], for which the Daq in series [3] turned out to be 7.9 ×10⁻⁶ cm2/s. The molecule further gave a Papp in “clinical” of 90 ×10⁻⁶ cm/s.

`O=C(O)c1ccccc1O` [SALICYLIC ACID]: the bioavailability in series [1] is 100%. In addition, in series [3], the Daq is recorded as 10.6 ×10⁻⁶ cm2/s. This molecule also showed a Papp in the series “clinical” of 267 ×10⁻⁶ cm/s.

The molecule `CC1=C(C(=O)O)N2C(=O)[C@@H](NC(=O)[C@H](N)c3ccccc3)[C@H]2SC1` [CEPHALEXIN ANHYDROUS] registered a Daq in series [3] of 7 ×10⁻⁶ cm2/s.

`NC(=O)N1c2ccccc2C=Cc2ccccc21` [CARBAMAZEPINE]: the bioavailability in series [1] is 90%. The molecule also showed a Daq in series [3] of 8.3 ×10⁻⁶ cm2/s. The Papp in the series “clinical” was found to be 430 ×10⁻⁶ cm/s.

Take `CC(C)n1c(/C=C/C(O)CC(O)CC(=O)O)c(-c2ccc(F)cc2)c2ccccc21` (stereo unspecified) [FLUVASTATIN]: in series [1], the bioavailability was found to be 95%. The molecule further displayed a Daq in series [3] of 6.5 ×10⁻⁶ cm2/s. In addition, the apparent permeability coefficient (Papp) in the series “clinical” turned out to be 238 ×10⁻⁶ cm/s.

For `C[C@H](N[C@@H](CCc1ccccc1)C(=O)O)C(=O)N1CCC[C@H]1C(=O)O` [ENALAPRILAT ANHYDROUS], in series [1], the bioavailability was found to be 8%. The pKa in series [4] was determined as 3.2. Moreover, in series [3], the Daq is 7 ×10⁻⁶ cm2/s. The molecule further registered a Papp in “clinical” of 10 ×10⁻⁶ cm/s.

Take `CC1=C(/C=C/C(C)=C/C=C/C(C)=C/C(=O)O)C(C)(C)CCC1` [TRETINOIN]: the bioavailability in series [1] worked out at 90%. Besides, in series [3], the Daq is 7.5 ×10⁻⁶ cm2/s. Moreover, the Papp in the series “clinical” was found to be 99 ×10⁻⁶ cm/s.

With `COc1ccc2cc([C@H](C)C(=O)O)ccc2c1` [NAPROXEN], the Daq in series [3] was found to be 8.4 ×10⁻⁶ cm2/s.

As to `Cn1c(=O)c2c(ncn2C)n(C)c1=O` [CAFFEINE], the bioavailability in series [1] came to 98%.

Regarding `CC(C)Cc1ccc(C(C)C(=O)O)cc1` (stereo unspecified) [IBUPROFEN], the bioavailability in series [1] amounted to 85%.

`C[C@H]1O[C@@H](O[C@H]2[C@@H](O)C[C@H](O[C@H]3[C@@H](O)C[C@H](O[C@H]4CC[C@@]5(C)[C@H](CC[C@@H]6[C@@H]5C[C@@H](O)[C@]5(C)[C@@H](C7=CC(=O)OC7)CC[C@]65O)C4)O[C@@H]3C)O[C@@H]2C)C[C@H](O)[C@@H]1O` [DIGOXIN]: the bioavailability in series [1] came to 70%.

`O=C(O)Cc1ccccc1Nc1c(Cl)cccc1Cl` [DICLOFENAC] returned a bioavailability in series [1] of 54%.

The molecule `CNC(=C[N+](=O)[O-])NCCSCc1ccc(CN(C)C)o1` [RANITIDINE] came in with a bioavailability in series [1] of 50%. The pKa in series [4] is 2.11. Also, the Daq in series [3] is 7.3 ×10⁻⁶ cm2/s. For the same molecule, in “clinical”, the Papp amounted to 27.3 ×10⁻⁶ cm/s.

Molecule `Cc1cc(NC(=O)C2=C(O)c3ccccc3S(=O)(=O)N2C)no1` [ISOXICAM] yielded a bioavailability in series [1] of 100%.

`CN/C(=N/CCSCc1nc[nH]c1C)NC#N` [CIMETIDINE]: the bioavailability in series [1] was 60%. Further, the pKa in series [4] is 6.76. For the same molecule, in series [3], the Daq is given as 8.1 ×10⁻⁶ cm2/s. Moreover, the apparent permeability coefficient (Papp) in “clinical” was determined as 26 ×10⁻⁶ cm/s.

`O` [WATER]: the Daq in series [3] stood at 26.7 ×10⁻⁶ cm2/s. In “clinical”, this molecule came in with a Papp of 140 ×10⁻⁶ cm/s.

On to `COc1ccc2c(c1)c(CC(=O)O)c(C)n2C(=O)c1ccc(Cl)cc1` [INDOMETHACIN], for which the bioavailability in series [1] worked out at 99%.

`CC(C)C[C@H](N)C(=O)O` [LEUCINE] had a bioavailability in series [1] of 100%. Moreover, the pKa in series [4] is 2.38. Moreover, the Daq in series [3] came to 10.9 ×10⁻⁶ cm2/s. The molecule further came in with an apparent permeability coefficient (Papp) in “clinical” of 620 ×10⁻⁶ cm/s.

Consider `NC(N)=O` [UREA], for which the logP in series [2] is -1.64. Moreover, the Daq in series [3] came to 15.5 ×10⁻⁶ cm2/s. Besides, the Papp in “clinical” is 140 ×10⁻⁶ cm/s.

With `CCC[C@@H]1C[C@@H](C(=O)N[C@@H]([C@H]2O[C@H](SC)[C@H](O)[C@@H](O)[C@H]2O)[C@@H](C)O)N(C)C1` [LINCOMYCIN], the bioavailability in series [1] came to 25%.

In turn, `CC(C)(C)NCC(O)COc1cccc2c1CC(O)C(O)C2` (stereo unspecified) [NADOLOL] returned a bioavailability in series [1] of 30%.

In turn, `COC1=CC(=O)C[C@@H](C)[C@]12Oc1c(Cl)c(OC)cc(OC)c1C2=O` [GRISEOFULVIN] displayed a bioavailability in series [1] of 95%. For the same molecule, in series [3], the Daq is 6.9 ×10⁻⁶ cm2/s. Besides, the apparent permeability coefficient (Papp) in the series “clinical” turned out to be 114 ×10⁻⁶ cm/s.

`CN1C(C(=O)Nc2ccccn2)=C(O)c2ccccc2S1(=O)=O` [PIROXICAM]: in series [1], the bioavailability was 100%. For the same molecule, the Daq in series [3] was determined as 7.1 ×10⁻⁶ cm2/s. Further, the apparent permeability coefficient (Papp) in “clinical” worked out at 665 ×10⁻⁶ cm/s.

For `COc1cc([C@@H]2c3cc4c(cc3[C@@H](O[C@@H]3O[C@@H]5CO[C@@H](C)O[C@H]5[C@H](O)[C@H]3O)[C@H]3COC(=O)[C@H]23)OCO4)cc(OC)c1O` [ETOPOSIDE], in series [1], the bioavailability amounted to 52%.

Molecule `CC(C)NCC(O)c1ccc(NS(C)(=O)=O)cc1` (stereo unspecified) [SOTALOL] registered a bioavailability in series [1] of 95%.

`CC(C(=O)O)c1cccc(C(=O)c2ccccc2)c1` (stereo unspecified) [KETOPROFEN]: the logP in series [2] was 3.16. The molecule further had a Daq in series [3] of 8 ×10⁻⁶ cm2/s. The apparent permeability (Papp) in the series “clinical” was determined as 840 ×10⁻⁶ cm/s.

Consider `OC[C@H]1OC(O)[C@H](O)[C@@H](O)[C@@H]1O` (stereo partly specified) [DEXTROSE], for which the bioavailability in series [1] turned out to be 100%. In addition, the logP in series [2] was -0.67. Moreover, the Daq in series [3] was found to be 9.4 ×10⁻⁶ cm2/s. In “clinical”, the Papp was 560 ×10⁻⁶ cm/s.

In series [1], `CC1(C)S[C@@H]2[C@H](NC(=O)[C@H](N)c3ccc(O)cc3)C(=O)N2[C@H]1C(=O)O` [AMOXICILLIN] had a bioavailability of 45%. Moreover, the Daq in series [3] came out at 6.8 ×10⁻⁶ cm2/s. The molecule also showed an apparent permeability coefficient (Papp) in “clinical” of 30 ×10⁻⁶ cm/s.

As for `CC1COc2c(N3CCN(C)CC3)c(F)cc3c(=O)c(C(=O)O)cn1c23` (stereo unspecified) [OFLOXACIN], the bioavailability in series [1] turned out to be 90%.

With `CC(C)NCC(O)COc1cccc2ccccc12` (stereo unspecified) [PROPRANOLOL], in series [1], the bioavailability amounted to 100%. The Daq in series [3] amounted to 8 ×10⁻⁶ cm2/s.
